Here are results for one compound from patent publication US20230346735A1, “Nutritional Composition Comprising Carnitine and Method for Treating or Preventing an Infection in a Mammal” (priority 2020, published 2023).

SMILES strings stand for the structures. Marks after values point to notes of the source that are not given here.

In one assay the test system is TNF-alpha. The assay is described as follows: Human study, serum ELISA, TNF-alpha. The class given is in vivo. The procedure:
A human study was run with a total of 80 healthy male and female subjects ranging from 21 to 65 years of age, who were active (i.e. 30 minutes per day of moderate activity, 3 days per week) are randomized into two groups. […] Seventy-three subjects completed the trial and biomarker data were analyzed from the sera of the 73 completers. Sera were collected for analysis of C-Reactive Protein (CRP), ACE 1, ACE 2, TMPRSS 2, the Tumor Necrosis Factor alpha (TNF-alpha), and Furin at baseline in the beginning of the trial, at week 5 and 48 hr after an exercise challenge as described (Clinicaltrials.gov NCT04420377). The exercise challenge serves as surrogate to the inflammation stimulus.
To obtain human sera, venous blood was extracted by venipuncture of the antecubital vein using a 21-gauge syringe and collected into a 10 mL EDTA vacutainer tube (BD Vacutainer®, Becton, Dickinson and Company, Franklin Lakes, NJ) by a certified phlebotomist. […] Human ACE-1, ACE-2, TMPRSS2, Furin, CRP and TNF-alpha protein levels were assessed using commercially available ELISA kits, according the manufacturer recommendations, ACE-1 (R&D systems Inc., Minneapolis, MN, USA), ACE-2 (RayBiotech inc., Peachtree Corners, GA), TMPRSS2 (Novus Biologicals, Littleton, CO), CRP (R&D Systems Inc., Minneapolis, MN), TNF-alpha (Novus Biologicals, Littleton, CO), and Furin (Sigma Aldrich, St. Louis, MO). […]
For orientation: ELISA stands for enzyme-linked immunosorbent assay.

The next assay has as its system catalase. Description: Antioxidant capacity: catalase in exercised rats. In kind it is in vivo, rat. Conditions: 6 weeks. The procedure:
Fifty-six (56) Male Wistar rats that were 8-week old were obtained. The rats were reared at the temperature of 22 ± 2° C., the humidity of 55 ± 5%, and with a 12-hrs light-12-hrs dark cycle. All procedures involving rats were conducted in strict compliance with the relevant laws, the Animal Welfare Act, Public Health Services Policy, and guidelines established by the Institutional Animal Care and Use Committee of the Institute of the contracted University which completed the study.
After a week of the adaptation period, the rats were divided into eight equal groups containing seven rats each. The initial body weights of the rats were similar in all the groups (214.53 grams ± 4.67; P > 0.05).
Groups 1 and 2 were not subjected to an exercise routine. Groups 3-8 were subjected to an exercise regimen consisting of a week training period with an incremental exercise capacity described below. After the week training period the exercise regimen followed was each rat in Groups 3-8 were subjected to 6 weeks of running at 25 m/min during 45 min […]. […] These correspond to 0, 250, 500, 1000, 2000 and 4000 mg per day for humans, respectively.
The exercised rats were subjected to treadmill exercise on a motorized rodent treadmill (Commat Limited, Ankara, Turkey). The treadmill contained a stimulus grid at the back end of the treadmill giving an electric shock when the animal placed its paw on the grid. […] To eliminate the diurnal variations, all exercise tests were applied during the same time of the day. The week of training period was provided as pre-training practice for the animals to get familiar with the treadmill equipment and handling. In doing so, the rats in the exercise training groups were accustomed by treadmill exercise over 5 days such that: (i) 1st day, 10 m/min for 10 min, (ii) 2nd day, 20 m/min for 10 min, (iii) 3rd day, 25 m/min for 10 min, (iv) 4th day, 25 m/min for 20 min and (v) 5th day, 25 m/min for 30 min. After the training period, the rats in treadmill exercise groups ran on the treadmill 25 m/min for 45 min/ per day and five days per week for 6 weeks according to the protocol described by Sahin et al. Capsaicinoids Improve the Consequences of Physical Activity. Toxicol Rep. 2018;5:598-607, which is hereby incorporated by reference.
The exercise regimen was used to induce an inflammation and oxidative stress conditions. […] The results of malondialdehyde, superoxide dismutase, catalase, and glutathione peroxidase for each rat group are shown in TABLE 2.

Another assay has as its system ACE-2. The assay is described as follows: ACE-2 mRNA expression in Calu-3, RT real-time PCR. Conditions: Calu-3, 50 to 1,000 uM, 24 hr pre-treatment. The class given is cell-based, human. The protocol:
To quantify the human gene expression, Calu-3 seeded in a 12-well plate (220,000 cells) were stimulated with 100 uM, 500 uM and 1000 uM Carnitine alone for 24 h. RNA was extracted using TRIzol (Qiagen) as per standard protocol and total RNA was reverse transcribed using SuperScript II RT (Invitrogen). Expression levels of ACE-2 and TMPRSS2 were evaluated by SYBR real-time PCR using gene-specific primers as previously reported (Ma et al., Eye 2020;34:1212). GAPDH was used as an internal normalizer. […] Fold change in expression relative to that in untreated cells was determined using the standard ddCt method.
(Quantitative PCR measures a nucleic acid by following its amplification.)

The test system of another assay is SARS-CoV-2. The assay is described as follows: microbe, parasite or virus in culture. In kind it is cell-based.

What is called IC50 is the midpoint of a concentration-inhibition curve. Turning to `C[N+](C)(C)C[C@H](O)CC(=O)[O-]` [L-carnitine], in the assay with TNF-alpha (human serum, any time point, b137), the TNF-alpha levels entry was “No change occurred”. Further, the TNF-α result in the assay with TNF-alpha (human, group A, Wk5 compared to BL, p<0.01) was “lower”. For the same compound, the CAT in the assay with catalase (Car200: 200 mg/kg oral gavage, no exercise) is recorded as 147.19±2.01^de U/mg protein; in the assay on catalase (Ex+Car25: exercise, 25 mg/kg oral gavage) it was 144.55±3.21^de U/mg protein; with catalase (Ex+Car50: exercise, 50 mg/kg oral gavage), 152.72±2.50^cd U/mg protein; with catalase (Ex+Car100: exercise, 100 mg/kg oral gavage) it was 162.11±1.97^bc U/mg protein; in the assay with catalase (Ex+Car200: exercise, 200 mg/kg oral gavage), 170.77±2.57^b U/mg protein; with catalase (Ex+Car400: exercise, 400 mg/kg oral gavage), 186.10±2.50^a U/mg protein. Also, the “ACE-2 mRNA levels” value in the assay with ACE-2 is listed as “statistically significant downregulation”. Moreover, the “virus growth (plaque assay)” value in the assay on SARS-CoV-2 is listed as “successful at inhibiting virus growth”. Besides, the IC50 in the assay on SARS-CoV-2 (Severe acute respiratory syndrome coronavirus 2, Calu-3, read-out: IC50, inhibition of Calu-3 infection) worked out at 139 µM.
